These results are taken from BindingDB's records for PubMed 38340508 (Biomedical Research Foundation of the Academy of Athens).

The nature of the experiment: Inhibition of MYC in chicken embryonic fibroblasts assessed as reduction in transformed cell foci with repeated addition of compounds every second day and measured after 1 to 3 weeks by crystal violet staining based analysis.

Broadly, the IC50 is the concentration that gives 50% inhibition. Regarding `Cc1cc(N2CCCCC2)nc2ccc(Cc3ccc4nc(N5CCCCC5)cc(C)c4c3)cc12`, the IC50 came out at 3000 nM.
